The term inhibition denotes the change of the read-out against control, counted positive when it falls.

Inhibition and Activity data for ten molecules are collected here from ChEMBL document CHEMBL4130363, “Synthesis and pharmacological evaluation of benzamide derivatives as potent and selective sigma-1 protein ligands” (Eur J Med Chem, 2017).

Assay [1] addresses Kappa-type opioid receptor (Homo sapiens) (UniProt P41145). Briefly: Antagonist activity at human kappa-type opioid receptor assessed as inhibition of agonist-induced effect at 10 uM by GTPgamma[35S] binding-based assay. The class given is functional. In general terms: Binding of GTPγS marks nucleotide exchange on a G protein.
Assay [2] deals with T1, Alpha-2B adrenergic receptor (Homo sapiens) (UniProt P18089).
T1 sequence (whole entry): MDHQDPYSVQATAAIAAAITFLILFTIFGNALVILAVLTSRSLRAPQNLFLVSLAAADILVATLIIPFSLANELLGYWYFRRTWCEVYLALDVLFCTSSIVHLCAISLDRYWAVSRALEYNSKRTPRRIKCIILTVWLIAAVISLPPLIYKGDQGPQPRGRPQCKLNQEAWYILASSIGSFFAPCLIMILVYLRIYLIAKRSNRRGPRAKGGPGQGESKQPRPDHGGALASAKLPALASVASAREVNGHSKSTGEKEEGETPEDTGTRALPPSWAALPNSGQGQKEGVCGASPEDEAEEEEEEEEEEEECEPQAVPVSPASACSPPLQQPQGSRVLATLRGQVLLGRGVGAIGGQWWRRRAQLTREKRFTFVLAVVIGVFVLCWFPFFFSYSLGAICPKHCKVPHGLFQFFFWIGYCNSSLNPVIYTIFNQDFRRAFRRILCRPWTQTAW
In words: Agonist activity at recombinant human alpha-2b adrenergic receptor at 10 uM by GTPgamma[35S] binding-based assay relative to agonist. The class given is functional.

Assay [3] concerns the target 5-hydroxytryptamine receptor 2A (Homo sapiens) (UniProt P28223). In words: Antagonist activity at recombinant human 5-HT2A assessed as inhibition of agonist-induced effect at 10 uM by aequorin reporter based assay. The format is functional.
In assay [4] the target is D(1A) dopamine receptor (Homo sapiens) (UniProt P21728). In words: Antagonist activity at recombinant human dopamine D1 receptor assessed as inhibition of agonist-induced cAMP induction at 10 uM by HTRF assay. The class given is functional. In general terms: TR-FRET usually uses a lanthanide donor and a delayed reading to cut background.
For assay [5], the target named is T2, 5-hydroxytryptamine receptor 3A (Homo sapiens) (UniProt P46098).
T2 sequence (whole entry): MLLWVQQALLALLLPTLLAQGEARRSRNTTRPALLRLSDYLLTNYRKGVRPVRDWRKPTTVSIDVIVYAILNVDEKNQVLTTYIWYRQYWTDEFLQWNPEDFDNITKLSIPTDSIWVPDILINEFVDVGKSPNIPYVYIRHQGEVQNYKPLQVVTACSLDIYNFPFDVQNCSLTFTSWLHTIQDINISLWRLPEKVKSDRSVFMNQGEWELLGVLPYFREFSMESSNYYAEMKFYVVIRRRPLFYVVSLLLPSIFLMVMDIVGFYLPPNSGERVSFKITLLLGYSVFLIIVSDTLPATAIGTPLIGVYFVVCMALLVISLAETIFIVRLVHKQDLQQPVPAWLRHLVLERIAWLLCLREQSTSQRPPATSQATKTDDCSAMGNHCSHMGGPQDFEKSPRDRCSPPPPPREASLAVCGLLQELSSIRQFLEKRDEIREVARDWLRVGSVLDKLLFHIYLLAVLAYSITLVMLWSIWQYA
In words: Agonist activity at recombinant human 5-HT3 at 10 uM by aequorin reporter based assay relative to agonist.

In assay [6] the target is 5-hydroxytryptamine receptor 5A (Homo sapiens) (UniProt P47898). In words: Antagonist activity at recombinant human 5-HT5A assessed as inhibition of agonist-induced effect at 10 uM by aequorin reporter based assay. The format is functional.
Assay [7] concerns the target T3, Substance-K receptor (Homo sapiens) (UniProt P21452).
T3 sequence (whole entry): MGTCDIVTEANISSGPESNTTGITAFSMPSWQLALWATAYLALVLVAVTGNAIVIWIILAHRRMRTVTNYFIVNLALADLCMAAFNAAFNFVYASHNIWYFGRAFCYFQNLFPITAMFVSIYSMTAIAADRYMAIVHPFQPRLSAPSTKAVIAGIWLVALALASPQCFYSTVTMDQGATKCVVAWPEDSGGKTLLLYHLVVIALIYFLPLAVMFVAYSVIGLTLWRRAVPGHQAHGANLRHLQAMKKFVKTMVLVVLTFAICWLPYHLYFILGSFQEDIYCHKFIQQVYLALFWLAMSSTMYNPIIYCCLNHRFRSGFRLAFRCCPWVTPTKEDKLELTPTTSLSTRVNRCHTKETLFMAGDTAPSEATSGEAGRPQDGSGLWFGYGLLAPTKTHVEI
Briefly: Antagonist activity at recombinant human NK2R assessed as inhibition of agonist-induced effect at 10 uM by aequorin reporter based assay. The class given is functional.

Assay [8] deals with Muscarinic acetylcholine receptor M3 (Homo sapiens) (UniProt P20309). Briefly: Agonist activity at recombinant human muscarinic M3 receptor at 10 uM by aequorin reporter based assay relative to agonist. The format is functional.
The target in assay [9] is T4, Adenosine receptor A1 (Homo sapiens) (UniProt P30542).
T4 sequence (whole entry): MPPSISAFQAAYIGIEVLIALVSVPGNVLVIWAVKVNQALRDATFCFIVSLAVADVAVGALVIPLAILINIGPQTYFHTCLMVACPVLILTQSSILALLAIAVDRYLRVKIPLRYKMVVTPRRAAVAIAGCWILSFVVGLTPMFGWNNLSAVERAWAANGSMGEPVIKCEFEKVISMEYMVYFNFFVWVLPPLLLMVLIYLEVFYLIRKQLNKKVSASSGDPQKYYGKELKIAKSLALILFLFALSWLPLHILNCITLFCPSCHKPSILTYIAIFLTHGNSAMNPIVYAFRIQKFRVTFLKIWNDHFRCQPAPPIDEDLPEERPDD
In words: Agonist activity at recombinant human adenosine A1 receptor […] at 10 uM by HTRF assay relative to agonist. The format is functional. (In general: Changes in cAMP serve as a functional read-out for many G protein-coupled receptors.)

The target of assay [10] is Delta-type opioid receptor (Homo sapiens) (UniProt P41143). In words: Agonist activity at recombinant human delta-type opioid receptor at 10 uM by GTPgamma[35S] binding-based assay relative to agonist. The class given is functional.
The target in assay [11] is Beta-1 adrenergic receptor (Homo sapiens) (UniProt P08588). Briefly: Antagonist activity at recombinant human beta-1 adrenergic receptor assessed as inhibition of agonist-induced cAMP induction at 10 uM by HTRF assay. The format is functional.
The target of assay [12] is T5, Muscarinic acetylcholine receptor M1 (Homo sapiens) (UniProt P11229).
T5 sequence (whole entry): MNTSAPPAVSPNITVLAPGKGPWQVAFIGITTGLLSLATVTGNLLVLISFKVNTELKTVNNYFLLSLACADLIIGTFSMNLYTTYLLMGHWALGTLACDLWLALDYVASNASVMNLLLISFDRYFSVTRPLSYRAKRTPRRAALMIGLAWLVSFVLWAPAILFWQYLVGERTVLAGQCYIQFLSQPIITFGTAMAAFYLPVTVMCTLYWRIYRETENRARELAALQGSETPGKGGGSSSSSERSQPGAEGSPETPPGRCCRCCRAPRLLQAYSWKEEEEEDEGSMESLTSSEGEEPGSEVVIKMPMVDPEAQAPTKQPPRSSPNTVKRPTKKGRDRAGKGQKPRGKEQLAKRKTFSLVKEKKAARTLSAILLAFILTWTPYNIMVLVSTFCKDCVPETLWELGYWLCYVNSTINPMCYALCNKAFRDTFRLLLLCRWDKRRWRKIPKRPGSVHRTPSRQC
Briefly: Antagonist activity at recombinant human muscarinic M1 receptor assessed as inhibition of agonist-induced effect at 10 uM by aequorin reporter based assay. The format is functional.

Chain of D(1A) dopamine receptor (Homo sapiens) (P21728 whole entry): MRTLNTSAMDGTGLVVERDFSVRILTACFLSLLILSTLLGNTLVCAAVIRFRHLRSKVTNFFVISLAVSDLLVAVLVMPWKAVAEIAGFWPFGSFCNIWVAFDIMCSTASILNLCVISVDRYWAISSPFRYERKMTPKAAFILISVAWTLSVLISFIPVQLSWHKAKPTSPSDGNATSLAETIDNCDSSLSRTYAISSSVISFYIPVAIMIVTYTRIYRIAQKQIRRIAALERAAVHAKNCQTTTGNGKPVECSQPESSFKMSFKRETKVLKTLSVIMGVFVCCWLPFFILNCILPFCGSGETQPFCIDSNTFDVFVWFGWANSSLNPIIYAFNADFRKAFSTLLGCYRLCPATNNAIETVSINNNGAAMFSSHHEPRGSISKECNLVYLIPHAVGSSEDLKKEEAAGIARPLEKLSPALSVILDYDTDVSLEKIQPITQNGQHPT
Chain of Kappa-type opioid receptor (Homo sapiens) (P41145 whole entry): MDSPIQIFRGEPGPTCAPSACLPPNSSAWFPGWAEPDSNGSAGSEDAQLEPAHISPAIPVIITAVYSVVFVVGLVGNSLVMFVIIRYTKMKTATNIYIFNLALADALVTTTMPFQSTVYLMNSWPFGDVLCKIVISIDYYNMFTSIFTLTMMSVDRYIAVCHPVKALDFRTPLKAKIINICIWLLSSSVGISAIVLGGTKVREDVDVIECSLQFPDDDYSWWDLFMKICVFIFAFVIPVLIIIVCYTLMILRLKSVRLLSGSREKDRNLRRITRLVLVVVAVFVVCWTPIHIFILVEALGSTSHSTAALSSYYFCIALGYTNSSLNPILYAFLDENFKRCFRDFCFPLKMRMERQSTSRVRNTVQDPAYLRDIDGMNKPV
Chain of Muscarinic acetylcholine receptor M3 (Homo sapiens) (P20309 whole entry, looked up): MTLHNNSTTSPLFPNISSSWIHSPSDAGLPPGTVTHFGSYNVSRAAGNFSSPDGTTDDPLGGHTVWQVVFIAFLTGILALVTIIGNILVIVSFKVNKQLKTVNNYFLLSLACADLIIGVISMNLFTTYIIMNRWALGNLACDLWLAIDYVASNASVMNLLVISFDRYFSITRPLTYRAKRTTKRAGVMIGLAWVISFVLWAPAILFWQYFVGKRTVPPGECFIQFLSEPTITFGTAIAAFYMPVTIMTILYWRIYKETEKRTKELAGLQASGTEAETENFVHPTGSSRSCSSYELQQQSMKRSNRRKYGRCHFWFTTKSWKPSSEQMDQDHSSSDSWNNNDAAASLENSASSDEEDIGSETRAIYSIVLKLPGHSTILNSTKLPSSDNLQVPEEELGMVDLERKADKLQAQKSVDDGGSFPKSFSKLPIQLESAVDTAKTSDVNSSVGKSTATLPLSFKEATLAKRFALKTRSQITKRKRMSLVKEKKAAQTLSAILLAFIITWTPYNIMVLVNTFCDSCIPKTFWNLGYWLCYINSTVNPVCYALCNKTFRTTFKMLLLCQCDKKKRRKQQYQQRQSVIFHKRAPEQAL
Chain of 5-hydroxytryptamine receptor 2A (Homo sapiens) (P28223 whole entry): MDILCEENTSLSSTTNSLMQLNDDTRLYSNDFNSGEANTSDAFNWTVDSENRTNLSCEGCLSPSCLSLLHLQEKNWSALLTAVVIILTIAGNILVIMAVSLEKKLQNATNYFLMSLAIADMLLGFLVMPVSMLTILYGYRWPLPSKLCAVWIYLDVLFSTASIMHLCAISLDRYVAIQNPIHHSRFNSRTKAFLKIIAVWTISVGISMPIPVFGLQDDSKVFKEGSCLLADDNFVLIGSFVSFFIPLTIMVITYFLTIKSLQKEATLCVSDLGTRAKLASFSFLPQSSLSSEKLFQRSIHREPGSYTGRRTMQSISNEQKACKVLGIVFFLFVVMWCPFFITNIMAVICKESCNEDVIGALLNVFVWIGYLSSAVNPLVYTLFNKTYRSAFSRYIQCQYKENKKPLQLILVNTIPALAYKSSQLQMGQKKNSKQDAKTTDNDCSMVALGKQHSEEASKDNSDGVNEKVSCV
Chain of Beta-1 adrenergic receptor (Homo sapiens) (P08588 whole entry, looked up): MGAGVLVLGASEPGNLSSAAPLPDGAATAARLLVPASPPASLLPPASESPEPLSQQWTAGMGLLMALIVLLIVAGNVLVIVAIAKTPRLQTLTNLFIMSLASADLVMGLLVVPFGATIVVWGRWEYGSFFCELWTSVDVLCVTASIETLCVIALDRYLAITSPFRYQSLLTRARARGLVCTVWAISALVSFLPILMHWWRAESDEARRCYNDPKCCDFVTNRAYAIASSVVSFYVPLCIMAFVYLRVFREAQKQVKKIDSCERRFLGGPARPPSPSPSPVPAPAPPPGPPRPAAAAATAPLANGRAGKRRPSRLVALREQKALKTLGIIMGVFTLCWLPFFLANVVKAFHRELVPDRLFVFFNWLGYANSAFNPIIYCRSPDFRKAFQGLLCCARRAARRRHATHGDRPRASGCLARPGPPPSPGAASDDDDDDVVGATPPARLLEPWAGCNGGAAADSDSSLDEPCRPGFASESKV
Chain of Delta-type opioid receptor (Homo sapiens) (P41143 whole entry): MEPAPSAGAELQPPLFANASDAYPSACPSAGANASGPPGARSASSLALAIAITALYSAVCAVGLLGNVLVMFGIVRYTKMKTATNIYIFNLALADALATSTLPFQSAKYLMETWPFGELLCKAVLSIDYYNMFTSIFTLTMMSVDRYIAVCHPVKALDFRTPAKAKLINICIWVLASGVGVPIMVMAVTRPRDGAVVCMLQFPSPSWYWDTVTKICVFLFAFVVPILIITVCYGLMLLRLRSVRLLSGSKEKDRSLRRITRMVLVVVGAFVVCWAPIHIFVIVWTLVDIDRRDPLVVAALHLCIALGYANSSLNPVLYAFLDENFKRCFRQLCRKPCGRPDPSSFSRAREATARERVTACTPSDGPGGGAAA
Chain of 5-hydroxytryptamine receptor 5A (Homo sapiens) (P47898 whole entry): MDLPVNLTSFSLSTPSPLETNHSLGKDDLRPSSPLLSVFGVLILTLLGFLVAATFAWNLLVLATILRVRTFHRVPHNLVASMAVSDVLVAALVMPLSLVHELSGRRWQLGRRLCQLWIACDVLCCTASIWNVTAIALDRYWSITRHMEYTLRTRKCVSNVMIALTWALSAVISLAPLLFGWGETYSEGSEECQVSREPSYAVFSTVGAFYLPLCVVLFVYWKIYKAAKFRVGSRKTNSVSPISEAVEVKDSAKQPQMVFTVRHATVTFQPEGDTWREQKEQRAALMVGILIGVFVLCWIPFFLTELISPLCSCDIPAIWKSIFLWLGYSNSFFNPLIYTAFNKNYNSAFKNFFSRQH

Regarding `CN(CCCNC(=O)c1cccc(Br)c1)Cc1ccccc1`, the inhibition in [1] is 26%; in assay [3], -9%; in assay [4], 1%; in [6], 23%; in assay [7] it was 9%; in assay [11], 12%. In addition, the inhibition in assay [12] is 96%. Besides, the Activity is -4% in assay [2]; 0% in assay [5]; -2% in assay [8]; -12% in assay [9]; -1% in [10].

Consider `CN(CCCNC(=O)c1ccc(C(F)(F)F)cc1)Cc1ccccc1`, for which the inhibition in assay [1] is 28%; in assay [3], 18%; in [4], 9%; in [6], 14%; in assay [7] it was 6%; in assay [11] it was 12%. In assay [12], the inhibition was 88%. For the same molecule, the Activity is 2% in [2]; -1% in assay [5]; -2% in assay [8]; -4% in [9]; 3% in assay [10].

Consider `CCCc1ccc(C(=O)NCCCN(C)Cc2ccccc2)cc1`, for which the inhibition in [1] was 26%; in [3], 37%; in [4], 6%; in assay [6], 13%; in [7], 5%; in assay [11] it was 11%. For the same molecule, the inhibition in [12] was found to be 98%. Moreover, the Activity in [2] is -2%; in assay [5], -1%; in [8], -2%; in assay [9] it was -3%; in assay [10], 1%.

Regarding `CN(CCNC(=O)c1ccc([N+](=O)[O-])cc1)Cc1ccccc1`, the inhibition in assay [1] is 23%; in assay [3] it was 20%; in assay [4] it was 3%; in assay [6], 36%; in assay [7] it was 15%; in [11] it was -2%. In [12], the inhibition worked out at 31%. The Activity in assay [2] is -4%; in assay [5], 0%; in assay [8], 0%; in assay [9] it was 0%; in [10] it was 0%.

For `CN(CCNC(=O)c1ccc(C#N)cc1)Cc1ccccc1`, the inhibition worked out at 9% in [1]; 23% in assay [3]; 0% in assay [4]; 28% in [6]; 29% in assay [7]; 9% in assay [11]. In addition, the inhibition in assay [12] turned out to be 6%. Also, the Activity was -5% in assay [2]; 0% in assay [5]; 0% in assay [8]; 1% in assay [9]; -2% in assay [10].

For `CN(CCCNC(=O)c1ccc(Br)cc1)Cc1ccccc1`, the inhibition in assay [1] was found to be 22%; in [3], 5%; in [4] it was 3%; in [6], 8%; in [7], 7%; in assay [11], 9%. Also, in assay [12], the inhibition was 89%. In addition, the Activity in assay [2] is 1%; in [5], 1%; in assay [8] it was 1%; in [9], -8%; in assay [10], 1%.

Regarding `CN(CCNC(=O)c1ccc(Cl)cc1)Cc1ccccc1`, the inhibition is 40% in assay [1]; 52% in [3]; 1% in [4]; 22% in assay [6]; 6% in assay [7]; 7% in [11]. In addition, the inhibition in [12] came out at 69%. Besides, the Activity was -1% in assay [2]; 0% in assay [5]; 0% in [8]; -11% in assay [9]; 1% in [10].

As to `COc1cccc(C(=O)NCCCN(C)Cc2ccccc2)c1`, the inhibition in [1] is 4%; in [3], 34%; in assay [4] it was 0%; in assay [6] it was 16%; in assay [7], 19%; in assay [11], -5%. Besides, the inhibition in assay [12] was determined as 34%. Further, the Activity in assay [2] is -1%; in [5], 0%; in [8], 0%; in assay [9], -6%; in assay [10], -4%.

Take `CN(CCCNC(=O)c1ccc(Cl)cc1)CCc1ccccc1`: the inhibition in [1] came out at 26%; in [3], 45%; in assay [4], 35%; in [6] it was 40%; in assay [7] it was 5%; in assay [11] it was 11%. The inhibition in [12] worked out at 86%. The Activity was 0% in assay [2]; -1% in assay [5]; -1% in assay [8]; -13% in [9]; 0% in assay [10].

As for `COc1ccc(C(=O)NCCCN(C)Cc2ccccc2)cc1`, the inhibition in assay [1] was 23%; in [3], 28%; in [4], -2%; in assay [6], 16%; in [7], 22%; in assay [11], -1%. In assay [12], the inhibition stood at 20%. Besides, the Activity in [2] was -4%; in assay [5], 0%; in assay [8], 1%; in assay [9], -3%; in [10], -6%.
